From US10052320B2, “Substituted quinoxalines as FGFR kinase inhibitors” (ASTEX THERAPEUTICS LIMITED, priority 2011, dated 2018)

Tests used:
FGFR1 (h) = FGFR1 (h) (Homo sapiens, UniProt P11362); assay: FGFR1 (enzymatic assay), TR-FRET; type: biochemical; details: read-out: FGFR 1 pIC50 (converted)
Procedure: In a final reaction volume of 30 μL, FGFR1 (h) (25 ng/ml) was incubated with 50 mM HEPES pH 7.5, 6 mM MnCl2, 1 mM DTT, 0.1 mM Na3VO4, 0.01% Triton-X-100, 500 nM Btn-Flt3 and 5 μM ATP in the presence of compound (1% DMSO final). […] Time-Resolved Fluorescence Resonance Energy Transfer (TR-FRET) signal (ex340 nm. Em 620 nm, em 655 nm) was measured afterwards and results are expressed in RFU (Relative Fluorescence Units).

[1] = target: Ba/F3-FGFR1-transfected cells (Homo sapiens, UniProt P11362); assay: Ba/F3-FGFR1 (minus IL3) cellular proliferation assay, Alamar Blue; type: cell-based; details: for BAF3-FGFR 1 (MIN IL3) 384 well pIC50: minus IL3, 384 well
Procedure: (§1) Ba/F3-FGFR1 (Minus IL3 or Plus IL3) (Cellular Proliferation Assay)
(§2) Cells were put in an incubator at 37° C. and 5% CO2. After 24 hours, 10 μl of Alamar Blue solution (0.5 mM K3Fe(CN)6, 0.5 mM KaFe(CN)6, 0.15 mM Resazurin and 100 mM Phosphate Buffer) was added to the wells, incubated for 4 hours at 37° C. and 5% CO2 before RFU's (Relative Fluorescence Units) (ex. 540 nm., em. 590 nm.) were measured in a flurorescence plate reader. […]
(§3) In a 96 well plate, 180 μl cell culture medium (phenol red free RPMI-1640, 10% FBS, 2 mM L-Glutamine and 50 μg/ml Gentamycin) containing 10000 cells per well of Ba/F3-FGFR1-transfected cells were pipette and 20 μl of compound dilution in DMSO was added. Cells were put in an incubator at 37° C. and 5% CO2. After 24 hours, 40 μl of Alamar Blue solution (0.5 mM K3Fe(CN)6, 0.5 mM KaFe(CN)6, 0.15 mM Resazurin and 100 mM Phosphate Buffer) was added to the wells, incubated for 4 hours at 37° C. and 5% CO2 before RFU's (Relative Fluorescence Units) (ex. 540 nm., em. 590 nm.) were measured in a flurorescence plate reader.

[2] = test system: Ba/F3-FGFR1-transfected cells in the presence of 10 ng/ml murine IL3; assay: Ba/F3-FGFR1 (plus IL3) cellular proliferation counterscreen, Alamar Blue; type: cell-based; details: plus IL3, 384 well; for IC50: Mus musculus, read-out: BAF3-FGFR 1 (PLUS IL3) 384 well pIC50 (converted)
Procedure: as §1
as §3, with “a 384” for “a 96”, “plate, 100 nl of compound dilution in DMSO was sprayed before adding 50” for “plate, 180”, “containing 20000” for “containing 10000”, “Ba/F3-FGFR1-transfected cells.” for “Ba/F3-FGFR1-transfected cells were pipette and 20 μl of compound dilution in DMSO was added.”, “hours, 10” for “hours, 40”
As a counterscreen the same experiment was performed in the presence of 10 ng/ml murine IL3.
as §3

[3] = target: T1, Ba/F3-Flt3-transfected cells (Homo sapiens, UniProt P36888, cells depend on it, form not given); assay: Ba/F3-Flt3 (minus IL3) cellular proliferation assay, Alamar Blue; type: cell-based
T1 sequence (P36888 1-993): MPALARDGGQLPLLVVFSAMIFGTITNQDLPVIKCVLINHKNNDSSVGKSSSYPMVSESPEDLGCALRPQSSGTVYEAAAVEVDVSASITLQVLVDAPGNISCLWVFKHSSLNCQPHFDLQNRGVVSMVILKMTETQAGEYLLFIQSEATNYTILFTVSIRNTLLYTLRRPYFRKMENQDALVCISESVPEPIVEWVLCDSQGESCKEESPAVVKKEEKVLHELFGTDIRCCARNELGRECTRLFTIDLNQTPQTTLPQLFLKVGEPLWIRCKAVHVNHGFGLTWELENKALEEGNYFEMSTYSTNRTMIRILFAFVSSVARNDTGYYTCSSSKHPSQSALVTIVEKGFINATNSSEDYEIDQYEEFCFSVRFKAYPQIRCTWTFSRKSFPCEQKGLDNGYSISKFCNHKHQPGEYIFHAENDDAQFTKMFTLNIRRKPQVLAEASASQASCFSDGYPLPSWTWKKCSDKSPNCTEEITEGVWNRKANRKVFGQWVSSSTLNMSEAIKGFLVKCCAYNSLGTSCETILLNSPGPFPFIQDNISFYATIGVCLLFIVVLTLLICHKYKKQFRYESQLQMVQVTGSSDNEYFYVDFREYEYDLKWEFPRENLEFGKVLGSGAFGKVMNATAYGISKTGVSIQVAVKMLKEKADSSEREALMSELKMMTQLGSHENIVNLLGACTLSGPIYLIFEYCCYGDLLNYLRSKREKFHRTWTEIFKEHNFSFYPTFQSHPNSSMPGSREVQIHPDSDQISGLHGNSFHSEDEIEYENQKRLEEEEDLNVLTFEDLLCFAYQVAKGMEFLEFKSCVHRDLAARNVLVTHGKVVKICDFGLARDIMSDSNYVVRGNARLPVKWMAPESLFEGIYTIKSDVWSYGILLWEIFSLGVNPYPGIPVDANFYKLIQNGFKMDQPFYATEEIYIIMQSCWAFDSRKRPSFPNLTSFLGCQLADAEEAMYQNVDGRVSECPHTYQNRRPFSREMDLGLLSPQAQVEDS
Procedure: Ba/F3-Flt3 (Minus IL3 or Plus IL3) (Cellular Proliferation Assay)
as §2
as §3, with “Ba/F3-Flt3-transfected” for “Ba/F3-FGFR1-transfected”

Sequence of Ba/F3-FGFR1-transfected cells (P11362 whole entry, change not shown): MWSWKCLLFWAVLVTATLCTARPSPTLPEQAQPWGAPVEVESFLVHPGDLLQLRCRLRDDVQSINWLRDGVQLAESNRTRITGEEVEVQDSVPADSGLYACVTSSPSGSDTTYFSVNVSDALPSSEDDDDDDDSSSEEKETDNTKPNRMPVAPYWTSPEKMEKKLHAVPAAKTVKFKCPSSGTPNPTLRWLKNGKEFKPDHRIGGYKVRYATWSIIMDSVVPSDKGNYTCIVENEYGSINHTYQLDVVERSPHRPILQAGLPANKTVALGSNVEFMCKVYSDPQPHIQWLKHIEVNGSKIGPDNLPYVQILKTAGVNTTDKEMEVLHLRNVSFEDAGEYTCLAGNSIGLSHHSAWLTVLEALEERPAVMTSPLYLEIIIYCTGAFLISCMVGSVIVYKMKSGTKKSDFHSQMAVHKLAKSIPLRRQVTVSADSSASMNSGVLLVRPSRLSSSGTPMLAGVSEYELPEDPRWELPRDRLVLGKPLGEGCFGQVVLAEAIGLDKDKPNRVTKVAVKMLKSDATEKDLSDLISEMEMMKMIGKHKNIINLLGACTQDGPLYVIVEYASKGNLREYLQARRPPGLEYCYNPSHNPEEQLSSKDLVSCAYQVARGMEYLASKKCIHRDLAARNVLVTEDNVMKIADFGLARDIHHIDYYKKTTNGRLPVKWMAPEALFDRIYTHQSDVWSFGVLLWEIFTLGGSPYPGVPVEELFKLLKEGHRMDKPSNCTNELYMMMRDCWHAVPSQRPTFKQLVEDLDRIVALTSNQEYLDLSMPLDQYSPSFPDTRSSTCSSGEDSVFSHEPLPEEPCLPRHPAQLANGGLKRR
Sequence of FGFR1 (h) (P11362 22-822): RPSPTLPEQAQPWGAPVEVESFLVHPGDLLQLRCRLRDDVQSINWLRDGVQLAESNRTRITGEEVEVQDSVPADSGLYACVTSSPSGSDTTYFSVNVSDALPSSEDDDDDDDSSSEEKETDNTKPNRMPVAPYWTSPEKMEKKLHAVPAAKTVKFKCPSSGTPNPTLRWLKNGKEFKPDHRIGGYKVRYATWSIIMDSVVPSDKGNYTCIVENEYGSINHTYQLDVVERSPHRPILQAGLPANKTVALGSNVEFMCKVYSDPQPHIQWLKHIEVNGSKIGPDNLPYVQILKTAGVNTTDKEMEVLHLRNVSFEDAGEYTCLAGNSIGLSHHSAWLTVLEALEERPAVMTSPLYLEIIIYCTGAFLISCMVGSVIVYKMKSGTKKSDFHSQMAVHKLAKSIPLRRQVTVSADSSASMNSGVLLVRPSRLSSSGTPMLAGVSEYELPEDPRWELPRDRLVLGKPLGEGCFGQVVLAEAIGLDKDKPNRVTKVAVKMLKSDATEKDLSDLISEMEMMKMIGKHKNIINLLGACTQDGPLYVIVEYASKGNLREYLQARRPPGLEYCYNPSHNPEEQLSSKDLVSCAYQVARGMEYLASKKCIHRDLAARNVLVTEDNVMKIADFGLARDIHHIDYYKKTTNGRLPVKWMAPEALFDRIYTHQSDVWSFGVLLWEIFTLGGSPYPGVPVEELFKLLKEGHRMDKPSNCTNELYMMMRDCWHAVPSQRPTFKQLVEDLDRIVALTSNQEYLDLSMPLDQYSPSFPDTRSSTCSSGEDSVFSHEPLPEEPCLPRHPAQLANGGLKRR

SMILES | IC50 (FGFR1 (h)) [nM] | BAF3-FGFR 1 (MIN IL3) 384 well pIC50 [1] | BAF3-FLT3 (MIN IL3) 384 well pIC50 ([3]; minus IL3) | BAF3-FLT3 (MIN IL3) 96 well pIC50 ([3]; minus IL3, 96 well) | BAF3-FLT3 (MIN IL3) 384 well pIC50 ([3]; minus IL3, 384 well) | BAF3-FGFR 1 (MIN IL3) 96 well pIC50 ([1]; minus IL3, 96 well) | BAF3-FLT3 (MIN IL3) 96 well pIC50 ([3]; minus IL3) | IC50 [2] [nM] | BAF3-FGFR 1 (PLUS IL3) 384 well pIC50 [2]
COc1cc(OC)cc(N(CCCNCC(F)(F)F)c2ccc3ncc(-c4ccn(C)c4)nc3c2)c1 [Compound 5] | 6.92 | 5.99 | <5 | – | – | – | – | > 10000 | –
COc1cc(OC)cc(N(CCO)c2ccc3ncc(-c4ccc(N5CCOCC5)nc4)nc3c2)c1 [Compound 19] | 3.89 | 6.41 | <5 | – | – | – | – | > 10000 | –
COc1cc(OC)cc(N(CCCNCC(F)(F)F)c2ccc3ncc(-c4cnc(OC)nc4)nc3c2)c1 [Compound 26] | 112 | 5.13 | – | – | – | – | – | > 10000 | –
COc1cc(OC)cc(N(CCO)c2ccc3ncc(N4CCC(CN)CC4)nc3c2)c1 [Compound 84] | 44.7 | 5.05 | <5 | – | – | – | – | – | –
COc1cc(OC)cc(N(CC2CC2)c2ccc3ncc(-c4nnc(C)o4)nc3c2)c1 [Compound 85] | 302 | <5 | – | <5 | <5 | – | – | – | –
COc1cc(OC)cc(N(CC2CC2)c2ccc3ncc(-c4ccc5[nH]ccc5c4)nc3c2)c1 [Compound 86] | 513 | <5 | – | <5 | <5 | – | – | – | –
COc1cc(OC)cc(N(CC2CC2)c2ccc3ncc(-c4ccc5c(c4)OCO5)nc3c2)c1 [Compound 87] | 617 | <5.4 | – | – | <5.4 | – | – | – | –
COc1cc(OC)cc(N(CC2CC2)c2ccc3ncc(-c4cnc5[nH]ccc5c4)nc3c2)c1 [Compound 88] | 575 | <5 | – | <5 | <5 | – | – | – | –
COc1cc(OC)cc(N(CC2CC2)c2ccc3ncc(-c4cccc(N5CCOCC5)c4)nc3c2)c1 [Compound 92] | 363 | <5 | <5 | – | – | <5 | <5 | – | –
COc1cc(OC)cc(N(CC2CC2)c2ccc3ncc(-n4cccn4)nc3c2)c1 [Compound 95] | 1320 | <5 | <5 | – | – | – | <5 | – | –
COc1cc(OC)cc(N(CCCO)c2ccc3ncc(-c4cnc(N5CCN(C)CC5)c(C)c4)nc3c2)c1 [Compound 135] | 2 | 6.42 | 5.43 | – | – | – | – | – | –
COc1cc(OC)cc(N(CCCNC(C)C)c2ccc3ncc(-c4ccnc(NC(=O)OC(C)(C)C)c4)nc3c2)c1 [Compound 137] | 3.72 | 5.75 | 5.91 | – | – | – | – | – | –
COc1cc(OC)cc(N(CCO)c2ccc3ncc(-c4ccnc(C(=O)NCCCCCN)c4)nc3c2)c1 [Compound 138] | 22.9 | <5 | <5 | – | – | – | – | – | –
COc1cc(OC)cc(N(CCO)c2ccc3ncc(-c4ccc(N5CCNCC5)cc4)nc3c2)c1 [Compound 166] | 0.513 | – | 5.46 | – | – | – | – | 4790 | –
COc1cc(OC)cc(N(CCNC(C)C)c2ccc3ncc(-c4ccnn4C4CCCCO4)nc3c2)c1 (stereo not shown) [Compound 188] | 10 | 6.46 | – | – | – | – | – | > 10000 | –
COc1cc(OC)cc(N(CCNC(C)C)c2ccc3ncc(-c4ccn[nH]4)nc3c2)c1 [Compound 189] | 2.82 | 7.29 | – | – | – | – | – | > 10000 | –

The next lines start with results.

IC50 (FGFR1 (h)) [nM] | BAF3-FGFR 1 (MIN IL3) 384 well pIC50 [1] | BAF3-FLT3 (MIN IL3) 384 well pIC50 ([3]; minus IL3) | BAF3-FLT3 (MIN IL3) 96 well pIC50 ([3]; minus IL3, 96 well) | BAF3-FLT3 (MIN IL3) 384 well pIC50 ([3]; minus IL3, 384 well) | BAF3-FGFR 1 (MIN IL3) 96 well pIC50 ([1]; minus IL3, 96 well) | BAF3-FLT3 (MIN IL3) 96 well pIC50 ([3]; minus IL3) | SMILES | IC50 [2] [nM] | BAF3-FGFR 1 (PLUS IL3) 384 well pIC50 [2]
12.6 | 6.49 | <5 | – | – | – | – | COCC(O)CN(c1cc(OC)cc(OC)c1)c1ccc2ncc(-c3cccnc3)nc2c1 (single isomer, unassigned) [Compound 46] | > 10000 | –
21.4 | 6.29 | <5 | – | – | – | – | COCC(O)CN(c1cc(OC)cc(OC)c1)c1ccc2ncc(-c3cccnc3)nc2c1 (single isomer, unassigned) [Compound 47] | – | <5
87.1 | 5.96 | <5 | – | – | – | – | COCC(CN(c1cc(OC)cc(OC)c1)c1ccc2ncc(-c3cccnc3)nc2c1)OC(C)=O (single isomer, unassigned) [Compound 52] | > 10000 | –
11.7 | 6.3 | <5 | – | – | – | – | COCC(CN(c1cc(OC)cc(OC)c1)c1ccc2ncc(-c3cccnc3)nc2c1)OC(C)=O (single isomer, unassigned) [Compound 76] | – | <5
83.2 | 6.8 | <5 | – | – | – | – | COc1cc(OC)cc(N(CC#Cc2ncccn2)c2ccc3ncc(-c4cccnc4)nc3c2)c1 [Compound 2] | 7410 | –
1.2 | 6.9 | – | – | – | – | – | COc1cc(OC)cc(N(CCN)c2ccc3ncc(-c4ccn(C)c4)nc3c2)c1 [Compound 79] | > 10000 | –
24 | 5.63 | – | – | – | – | – | COc1cc(OC)cc(N(CCCO)c2ccc3ncc(-c4ccnc(Cl)c4)nc3c2)c1 [Compound 136] | > 10000 | –
12.6 | 5.64 | – | – | – | – | – | COc1cc(OC)cc(N(CCCO)c2ccc3ncc(-c4ccnc(F)c4)nc3c2)c1 [Compound 142] | > 10000 | –
